Measurements reported in paper PMC10579241, “Impact of trifluoromethyl and sulfonyl groups on the biological activity of novel aryl-urea derivatives: synthesis, in-vitro, in-silico and SAR studies” (Scientific Reports, 2023).
Marks after values point to notes of the source that are not given here.

Legend:
Bacillus mycoides = assay: microbe, parasite or virus in culture; type: cell-based
Escherichia coli = assay: Agar well diffusion, E. coli; type: cell-based
Candida albicans = assay: Agar well diffusion, C. albicans; type: cell-based
[1] = tested on: human lung carcinoma (A549); assay: cells; type: cell-based; conditions: A549, 48 h, 100 μg/mL
colon cancer (HCT116) = assay: cells; type: cell-based; conditions: Homo sapiens, HCT-116, 48 h, 100 μg/mL
prostate cancer (PC3) = assay: cells; type: cell-based; conditions: Homo sapiens, 48 h, 100 μg/mL
skin cancer (A431) = assay: cells; type: cell-based; conditions: Homo sapiens, A-431, 100 μg/mL, 48 h
[2] = tested on: hepatocellular carcinoma cell line (HePG2); assay: cells; type: cell-based; conditions: Homo sapiens, 48 h; for mortality at 100 µg/mL: 100 μg/mL
[3] = tested on: osteosarcoma cell line (HOS); assay: cells; type: cell-based; conditions: Homo sapiens, 48 h; for mortality at 100 µg/mL: 100 μg/mL; for IC50: MTT
[4] = tested on: pancreatic cancer cell line (PACA2); assay: cells; type: cell-based; conditions: Homo sapiens, PaCa-2, 48 h; for mortality at 100 µg/mL: 100 μg/mL
[5] = tested on: normal skin fibroblast cell line (BJ1); assay: cells; type: cell-based; conditions: Homo sapiens, Skin fibroblast, MTT, 48 h
PALB2 = assay: qRT-PCR, PALB2 in PACA2 cells; type: cell-based, human; conditions: versus negative untreated sample
CDKN2A = assay: qRT-PCR, CDKN2A in PACA2 cells; type: cell-based, human; conditions: versus negative untreated sample
PACA2 [6] = assay: DNA damage, comet assay, PACA2; type: cell-based, human
PACA2 [7] = assay: DNA fragmentation assay, PACA2; type: cell-based, human
[8] = Bacillus mycoides, read-out: Inhibition zones diameter
[9] = Escherichia coli, read-out: Inhibition zones diameter
[10] = Candida albicans, read-out: Inhibition zones diameter

## Colstin [reference compound]
Bacillus mycoides
  Inhibition zones diameter: 0 mm
Escherichia coli; E. coli, reference antibiotic 10 mcg
  Inhibition zones diameter: 0 mm
Candida albicans; C. albicans, reference antibiotic 10 mcg
  Inhibition zones diameter: 0 mm

## Cc1ccc(NC(=O)Nc2ccc(OC(F)(F)F)cc2)cc1 [Compound 14, 1-(p-Tolyl)-3-[4-(trifluoromethoxy)phenyl]urea]
Bacillus mycoides; [8]
  zone of inhibition at 10000 µg/mL: 15 ± 0.25 mm
Escherichia coli; [9]
  zone of inhibition at 10000 µg/mL: 17 ± 0.81 mm
Candida albicans; [10]
  zone of inhibition at 10000 µg/mL: 17 ± 0.27 mm
[1]
  mortality at 100 µg/mL: 38.5 ± 1.41%
Colon cancer (HCT116)
  mortality at 100 µg/mL: 5.6 ± 0.47%
Prostate cancer (PC3)
  mortality at 100 µg/mL: 45.3 ± 1.28%
Skin cancer (A431)
  mortality at 100 µg/mL: 2.3 ± 0.66%
[2]
  mortality at 100 µg/mL: 65.3 ± 1.44%
[3]
  mortality at 100 µg/mL: 100%
  IC50: 61.6 ± 0.81 µM
[4]
  mortality at 100 µg/mL: 47.2 ± 1.47%

## Cc1ccc(NC(=O)Nc2cc(C(F)(F)F)cc(C(F)(F)F)c2)cc1 [Compound 15, 1-[3,5-Bis(trifluoromethyl)phenyl]-3-(p-tolyl)urea]
Bacillus mycoides; [8]
  zone of inhibition at 10000 µg/mL: 23 ± 0.35 mm
Escherichia coli; [9]
  zone of inhibition at 10000 µg/mL: 24 ± 0.68 mm
Candida albicans; [10]
  zone of inhibition at 10000 µg/mL: 24 ± 1.22 mm
[1]
  mortality at 100 µg/mL: > 50%
Colon cancer (HCT116)
  mortality at 100 µg/mL: 49.6 ± 1.23%
Prostate cancer (PC3)
  mortality at 100 µg/mL: > 75%
[3]
  IC50: 37.3 ± 0.37 µM
[4]
  mortality at 100 µg/mL: > 75%
[4]; MTT
  IC50: 82.5 ± 0.21 µM
[5]
  IC50: 94.4 ± 0.71 µM
PALB2
  PALB2 gene expression level: significantly reduced
CDKN2A
  CDKN2A gene expression level: significantly reduced
PACA2 [6]
  DNA damaged cells % (mean ± SEM): 21.00 ± 1.29^a %
PACA2 [6]; of 400 cells analyzed
  Class 0 (no tail), number of cells: 316
  Class 1 (tail length < diameter of nucleus), number of cells: 31
  Class 2 (tail length between 1 and 2 × the diameter of nucleus), number of cells: 25
  Class 3 (tail length > 2 × the diameter of nucleus), number of cells: 28
  No. of cells, Comets: 84
PACA2 [7]
  Change (DNA fragmentation versus untreated cells): 20.20
PACA2 [7]; IC50 concentration, 24 h
  DNA fragmentation % M ± SEM: 32.3 ± 0.74^ab %
PACA2 [7]; doxorubicin = 0.0
  Inhibition: 12.22

## COc1cc(NC(=O)Nc2ccc(C)cc2)cc(OC)c1 [Compound 16, 1-[3,5-Dimethoxyphenyl]-3-(p-tolyl)urea]
Bacillus mycoides; [8]
  zone of inhibition at 10000 µg/mL: 16 ± 0.97 mm
Escherichia coli; [9]
  zone of inhibition at 10000 µg/mL: 16 ± 0.35 mm
Candida albicans; [10]
  zone of inhibition at 10000 µg/mL: 16 ± 0.95 mm
[1]
  mortality at 100 µg/mL: 35.9 ± 0.7%
Colon cancer (HCT116)
  mortality at 100 µg/mL: 5.9 ± 0.78%
Prostate cancer (PC3)
  mortality at 100 µg/mL: 44.6 ± 0.25%
Skin cancer (A431)
  mortality at 100 µg/mL: 40.3 ± 1.22%
[2]
  mortality at 100 µg/mL: 34.2 ± 0.13%
[3]
  mortality at 100 µg/mL: > 50%
[4]
  mortality at 100 µg/mL: > 50%

## CC[C@H]1OC(=O)[C@H](C)[C@@H](O[C@H]2C[C@@](C)(OC)[C@@H](O)[C@H](C)O2)[C@H](C)[C@@H](O[C@@H]2O[C@H](C)C[C@H](N(C)C)[C@H]2O)[C@](C)(O)C[C@@H](C)C(=O)[C@H](C)[C@@H](O)[C@]1(C)O [Erythromycin, reference compound]
Bacillus mycoides; [8]
  zone of inhibition at 15 µg/disc: 17 ± 0.15 mm
Escherichia coli; Escherichia coli, E. coli, reference antibiotic 15 mcg, read-out: Inhibition zones diameter
  zone of inhibition at 15 µg/disc: 29 ± 2.13 mm
Candida albicans; Candida albicans, C. albicans, reference antibiotic 15 mcg, read-out: Inhibition zones diameter
  zone of inhibition at 15 µg/disc: 25 mm

## Cc1ccc(NC(=O)Nc2ccccc2C(F)(F)F)cc1 [Compound 17, 1-(p-Tolyl)-3-[2-(trifluoromethyl)phenyl]urea]
Bacillus mycoides; [8]
  zone of inhibition at 10000 µg/mL: 18 mm
Escherichia coli; [9]
  zone of inhibition at 10000 µg/mL: 16 ± 0.54 mm
Candida albicans; [10]
  zone of inhibition at 10000 µg/mL: 15 ± 0.42 mm
[1]
  mortality at 100 µg/mL: 7.3 ± 0.35%
Colon cancer (HCT116)
  mortality at 100 µg/mL: 7.5 ± 0.92%
Prostate cancer (PC3)
  mortality at 100 µg/mL: > 50%
Skin cancer (A431)
  mortality at 100 µg/mL: 3.1 ± 1.14%
[2]
  mortality at 100 µg/mL: 71.2 ± 1.45%
[2]; MTT
  IC50: 199.3 ± 0.82 µM
[3]
  mortality at 100 µg/mL: > 50%
[4]
  mortality at 100 µg/mL: > 50%
